Usually IC50 stands for the concentration needed to halve the response being measured. A high value points to lower potency.

The test concerns the target T1, ALDH2 (Homo sapiens, UniProt P05091).
T1 sequence (P05091 18-517): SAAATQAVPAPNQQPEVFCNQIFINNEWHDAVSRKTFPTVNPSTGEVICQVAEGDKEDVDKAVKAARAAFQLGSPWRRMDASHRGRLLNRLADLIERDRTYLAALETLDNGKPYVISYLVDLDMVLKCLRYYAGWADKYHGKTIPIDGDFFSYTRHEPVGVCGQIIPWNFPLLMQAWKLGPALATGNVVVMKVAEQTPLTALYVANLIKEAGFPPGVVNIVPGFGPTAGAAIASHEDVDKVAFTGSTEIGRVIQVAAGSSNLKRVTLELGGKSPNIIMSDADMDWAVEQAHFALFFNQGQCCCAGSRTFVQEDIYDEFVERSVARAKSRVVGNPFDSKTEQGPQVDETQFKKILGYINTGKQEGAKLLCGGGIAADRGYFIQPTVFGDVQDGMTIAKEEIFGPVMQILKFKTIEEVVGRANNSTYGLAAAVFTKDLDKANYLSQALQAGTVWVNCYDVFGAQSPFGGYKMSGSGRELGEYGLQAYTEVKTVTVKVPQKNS
Nature of the test: Selectivity biochemical assay, NAD(P)H-Glo Detection System. The method, then:
Materials: ALDH2 was purchased from Abnova. Tris(hydroxymethyl)aminomethane (Tris) was purchased from MP Biomedicals. TCEP, ethylenediaminetetraacetic acid (EDTA), propionaldehyde, DMSO and Tween-20 were purchased from Sigma. Nicotinamide adenine dinucleotide (NAD) was obtained from Abcam. The NAD(P)H-Glo™ Detection System was purchased from Promega. White, non-binding surface, 384 well plates were supplied by Corning (#3574).
Method: Inhibition of ALDH1A3 was assessed using the NAD(P)H-Glo™ Detection System (Cat. No. G9062) from Promega. This assay detects the production of NADH from NAD by ALDH1A3 via the coupled enzymatic conversion of a proluciferin reductase substrate to generate a luminescent signal. Inhibition of ALDH1A3 by small molecule inhibitors will result in reduction or abrogation of luminescence signal increase above background. Inhibition of ALDH1A1, ALDH1A2 and ALDH2 (selectivity assays) were assessed using the same assay.
Compounds were dosed into Corning 384 well assay plates using an Echo acoustic dispenser to give 10 point curves in a 3-fold dilution series. Compounds were dispensed from a 20 mM DMSO stock and initially screened at a top concentration of 20 μM (ALDH1A3) or 250 μM (ALDH1A1, ALDH1A2 & ALDH2). Enzyme was added to the plate in a 5 μL volume, according to the final concentrations in table 1 below, and pre-incubated with compound for 30 minutes at room temperature before the addition of 5 μL of the substrate (propionaldehyde) and cofactor (NAD), to effect final concentrations equal to the Km as shown in Table 1. The assay buffer used consisted of 40 mM Tris for 1A1 (pH 7.6), 1A2 (pH 7.6) and 1A3 (pH 9.0) and 10 mM Tris for ALDH2 (pH 8.0) supplemented with 1 mM TCEP, 0.01% Tween-20, 0.1 mM EDTA. The reaction mix was incubated at 26° C. on a shaking incubator for 30 minutes before being stopped by the addition of 10 μL of the Promega detection reagent and 100×IC50 of inhibitors of the respective isoforms. After stopping the reaction the plate was incubated for 60 minutes at room temperature and the luminescence signal read on a PheraStar FS microplate reader (BMG Labtech) and resulting IC50 values were calculated using Dotmatics software.
Enzyme, substrate and cofactor concentrations were selected to ensure the reaction ran under initial velocity conditions.
In the case of `O=C1CCc2cc(OCCN3CCCC3c3ccncc3)ccc2N1` (stereo not shown) [ALDHI-2004, 6-[2-[2-(4-pyridyl)pyrrolidin-1-yl]ethoxy]-3,4-dihydro-1H-quinolin-2-one], the IC50 was ≥ 100 µM. Consider `O=C1CCc2cc(OCCN3CCC[C@@H]3c3cccc(F)c3)ccc2N1` [ALDHI-2007, 6-[2-[(2R)-2-(3-fluorophenyl)pyrrolidin-1-yl]ethoxy]-3,4-dihydro-1H-quinolin-2-one], for which the half-inhibitory concentration (IC50) was ≥ 100 µM. For `O=C1CCc2cc(OCCN3CCCC3c3cccc(F)c3)c(F)cc2N1` (stereo not shown) [ALDHI-2050, 7-fluoro-6-[2-[2-(3-fluorophenyl)pyrrolidin-1-yl]ethoxy]-3,4-dihydro-1H-quinolin-2-one] the value was ≥ 100 µM; for `O=C1CCc2cc(NC(=O)c3ocnc3-c3cccc(F)c3)ccc2N1` [ALDHI-1019, 4-(3-fluorophenyl)-N-(2-oxo-3,4-dihydro-1H-quinolin-6-yl)oxazole-5-carboxamide], ≥ 100 µM. On to `O=C1CCc2cc(OCCN3C(=O)CCC3c3ccccc3)ccc2N1` (stereo not shown) [ALDHI-2051, 6-[2-(2-oxo-5-phenyl-pyrrolidin-1-yl)ethoxy]-3,4-dihydro-1H-quinolin-2-one], for which the IC50 was ≥ 100 µM. Under `O=C1CSc2cc(OCCN3CCCC3c3cccc(F)c3)ccc2N1` (stereo not shown) [ALDHI-2008, 7-[2-[2-(3-fluorophenyl)pyrrolidin-1-yl]ethoxy]-4H-1,4-benzothiazin-3-one] stands ≥ 100 µM; under `Cc1nc(C2CCCN2CCOc2ccc3c(c2)CCC(=O)N3)cs1` (stereo not shown) [ALDHI-2033, 6-[2-[2-(2-methylthiazol-4-yl)pyrrolidin-1-yl]ethoxy]-3,4-dihydro-1H-quinolin-2-one], ≥ 100 µM; under `O=C1CCc2cc(OCCN3CCCC3c3cccc(F)c3)ccc2N1` (stereo not shown) [ALDHI-2001, 6-[2-[2-(3-fluorophenyl)pyrrolidin-1-yl]ethoxy]-3,4-dihydro-1H-quinolin-2-one], ≥ 100 µM. Under `O=C1CCc2cc(OCCN3CCCC3c3cccs3)ccc2N1` (stereo not shown) [ALDHI-2013, 6-[2-[2-(2-thienyl)pyrrolidin-1-yl]ethoxy]-3,4-dihydro-1H-quinolin-2-one] stands ≥ 100 µM; under `O=C1CCc2cc(NC(=O)c3scnc3-c3ccccc3F)ccc2N1` [ALDHI-1021, 4-(2-fluorophenyl)-N-(2-oxo-3,4-dihydro-1H-quinolin-6-yl)thiazole-5-carboxamide], ≥ 100 µM.

For the origin of these results see patent publication US20240174634A1, “Aldehyde Dehydrogenase Inhibitors and Their Therapeutic Use” (priority 2020, published 2024).
